Assay results reported in patent US7988956B2, “Hydrolytically degradable carbamate derivatives of poly(ethylene glycol)” (Nektar Therapeutics, priority 1999, dated 2011).

What was measured:
[1] = system: Micrococcus lysodeikticus; experiment: Bioactivity measurement of reversible lysozyme conjugate (Sigma HEW lysozyme protocol, decrease in absorbance at 450 nm); type: biochemical; conditions: 66 mM sodium phosphate buffer pH 6.24
Protocol: Bioactivity of free lysozyme, PEG conjugates of lysozyme and lysozyme recovered from hydrolysis of the conjugates were measured by an assay from the standard protocol of Sigma for hen's egg white (HEW) lysozyme EC.3.2.1.17. A solution containing the unmodified or PEG-modified lysozyme was diluted to 5.5 μg/ml in a 66 mM sodium phosphate buffer (pH 6.24). A suspension of 1.5 mg Micrococcus lysodeikticus in 10 ml of 66 mM phosphate buffer (pH 6.24) was allowed to equilibrate at room temperature until the absorbance at 450 nm was constant. Then 0.1 ml of a lysozyme solution was placed in a 1 cm light path quatz cuvette containing 2.5 ml of the substrate suspension. The decrease in the absorbance at 450 nm was recorded and the activity was determined from the maximum linear rate. Eighty-two percent of lysozyme bioactivity was recovered from the m-PEG-lysozyme conjugate, while the mPEG lysozyme had undetectable bioactivity prior to hydrolysis.

[2] = Hydrolysis of the PEG conjugate of lysozyme monitored by capillary electrophoresis; type: physicochemical; conditions: after hydrolysis for 10 days at pH 7 and 37° C.; CE, FIG. 1 Curve B
Protocol: The conjugates prepared as described above were placed at 37° C. and at room temperature and hydrolysis was monitored by capillary electrophoresis (CE).
CE conditions: A solution of 25 mM phosphate buffer, containing 0.1 mg/ml PEO 600K, pH 2.7 was flushed through the capillary for approximately 15-20 min. A voltage of 15 kV was applied until a smooth baseline was obtained. The 25 mM phosphate buffer solution was again flushed through for approximately 5 min and the capillary was then ready for sample injection. The sample, which was adjusted to pH 2 by a phosphate buffer (0.1 M, pH 2), was injected hydrostatically for about […] at a height of approximately 6 inches. A voltage of 15 kV was applied throughout the run with a current between 24 and 30 μA. The protein and PEG-protein conjugate were detected by a UV monitor at 214 nm. The CE instrument consists of a high-voltage power supply (Spellman CZE1000R), a fused silica capillary (75 μm i.d., 360 μm o.d., Polymicro Technologies, Phoenix, Ariz.) and a linear 200 UV/VIS monitor supplied with a deuterium lamp and a capillary flow cell. The total length of the capillary was 64.5 cm, with a 1 cm optical window at 40 cm from the anode. UV data was retrieved and stored using LabVIEW version 4.0.1 software (National Instruments).

Which “bioactivity prior to hydrolysis” value ([1]; PEG conjugate before hydrolysis) does the source give for “mPEG-lysozyme conjugate: mPEG-lysozyme conjugate prepared with N-mPEG benzamide-m-succimidyl carbonate; mono, di and tri PEGylated lysozyme” here?
The value was “undetectable”.

And the “lysozyme bioactivity recovered from the conjugate” value ([1]; lysozyme recovered from hydrolysis of the conjugate)?
Its value is “Eighty-two”.

What about the free lysozyme released [2] of the same substance?
Its free lysozyme released is “more than 85%”.
